Assay results taken from patent publication US11026914B2 (DelMar Pharmaceuticals, Inc., priority 2013, dated 2021).
Like-named read-outs stand apart in the source and are kept apart here.

Legend:
[1] = tested on: GBM; details: cited from earlier work
[2] = tested on: intracranial U251 human glioma tumors
Text: However, TMZ-resistance has emerged as a significant unmet medical need, as DNA repair enzyme O^6-methylguanine DNA methyltransferase (MGMT) removes the methyl-group adducts caused by TMZ. […] We thus sought to investigate how our CSC and non-CSC panel would respond to VAL-083 alone or in combination with XRT. We further investigated the activity of VAL-083 in in vivo models of drug-resistant GBM in comparison to TMZ. Rag2 mice bearing intracranial human GBM xenograft tumors of either MGMT-positive and TMZ-resistant origin (BT74), or MGMT-negative and TMZ-sensitive origin (U251) were treated. VAL-083 was given i.p. 3 times/week×3 weeks, and the efficacy of VAL-083 in controlling tumor growth compared to TMZ (30 mg/kg). Disease progression was evaluated by overall survival, clinical observations and body weight measurements.
On study day 0 for each set of mice, 44 female Rag2 mice were inoculated intracranially in the right caudate-putamen nucleus (coordinates: ML-1.5 mm; AP 1 mm; DV −3.5 mm) with 7.5×10^4 U251 human glioma cells.

[3] = tested on: GBM cell lines SF188, U251, and T98G; assay: Inhibition of tumor cell growth in GBM cell lines (FIG. 1, FIG. 6); type: cell-based, human; details: independent of MGMT
[4] = human, in vivo
Text: (§1) The study utilizes a 3+3 dose escalation design, until the MTD or the maximum specified dose is reached. […] In Phase II, additional patients will be treated at the MTD (or other selected optimum Phase II dose) to measure tumor responses. […] For these studies, the following is a summary of the inclusion criteria: (1) Patients must be greater than or equal to 18 years old. […] The following is a summary of the exclusion criteria: (1) There is a current history of neoplasm other than the entry diagnosis. Patients with previous cancers treated and cured with local therapy alone may be considered. (2) There is evidence of leptomeningeal spread of disease.
Open-label, single-arm Phase I/II dose-escalation study in patients with histologically-confirmed initial diagnosis of primary WHO Grade IV malignant glioma (glioblastoma). […] The study utilizes a 3+3 dose-escalation design.

[5] = Plasma pharmacokinetics in brain tumor patients after IV infusion (WinNonlin non-compartmental analysis); type: in vivo, human; details: for dose dependence of systemic exposure: dose escalation in patients
Protocol: Plasma drug concentration analysis data were analyzed using WinNonlin®, version 2.1A software (Pharsight Inc., Mountain View, Calif.) and Microsoft Office Excel 2007. Pharmacokinetic analysis was conducted by Dr. Sarath Kanekal, Ph.D. Use of MS Excel was limited to receipt of raw data, transfer into WinNonlin and generation of tables (Mean and SD) and graphs for the report.
The starting dose for Cohort #1 was 1.5 mg/m^2 IV daily×3 every 21 days. Cohorts 2 and 3 received DAG at doses of 3.0 and 5.0 mg/m^2 IV daily×3 every 21 days, respectively; cohort 4 received 10 mg/m^2. Dose escalation beyond 10 mg/m^2, up to 40 mg/m^2 IV daily×3 every 21 days is planned in the ongoing trial. Sample collection was on Day 1 at each dose level at the following time points: pre-dose, and 0.25, 0.5, 1, 2, 4, 6 h 15±5 minutes, 30±5 minutes, 60±10 minutes, 120±10 minutes, 240±15 minutes, and 360±15 minutes after the end of the IV study drug administration and immediately prior to Cycle 1, Day 2 of dosing. Drug concentration data was received from at least 3 patients for cohorts 1, 2 and 3, but only from 2 patients in cohort 4.
For the purposes of this interim analysis a fixed constant infusion time of 30 minutes and nominal collection time intervals were used for all patients. […] For the final PK analysis individual patient infusion time and exact collection time are used.
Pharmacokinetic analyses were performed on the plasma concentration versus time data using WinNonlin (Ver 2.1A) via non-compartmental analysis (NCA). A model for constant infusion (WinNonlin Model #202) was used for the analyses. Uniform weighting was used for all data. AUCall was calculated by the linear trapezoid rule and t1/2 of lambda z was used for estimating the terminal half-life. The last 2 or 3 concentrations above LLOQ were used for calculating lambda z. For clearance (CL) and Volume of Distribution (Vz), observed CL and observed Vz values outputted by WinNonlin are reported here. All plasma concentrations measurements reported as below the limit of quantitation (BLQ) was set equal to zero, and those reported as NS (no sample), if any, were left blank and treated as missing. Mean concentration and WinNonlin derived parameters are presented with standard deviation.

[6] = tested on: normal human neural stem cells; details: neurosphere growth assays; cited from earlier work
[7] = tested on: cancer stem cells (BT74, GBM4 and GBM8); details: BT74, GBM4 and GBM8, neurosphere growth assays; cited from earlier work
[8] = tested on: progressive secondary brain tumor; assay: Phase I/II dose-escalation study: tumor response in progressive secondary brain tumor patients; type: in vivo, human; details: n = 6
Text: (2) There is evidence of leptomeningeal spread of disease.
Outcomes analysis of cohort 6 is ongoing.

[9] = tested on: recurrent glioblastoma multiforme (GBM); assay: Phase I/II dose-escalation study: tumor response (RANO) in recurrent GBM patients
Text: as §1
Higher doses may be enrolled subject to completion of mandated safety observation period with Cohort 6 (30 mg/m^2). Patients enrolled present with refractory progressive GBM and a dire prognosis. […] The primary endpoint of this portion of the study is to determine a modernized dosing regimen for advancement to registration-directed clinical trials. […] In this design, it is not possible to perform a rigorous assessment of patient benefit due to slowed tumor growth. Tumor volume is assessed during the study based on RANO criteria.
Open-label, single-arm Phase I/II dose-escalation study in patients with histologically-confirmed initial diagnosis of primary WHO Grade IV malignant glioma (glioblastoma). […] The study utilizes a 3+3 dose-escalation design. […] The RANO (Response Assessment in Neuro-Oncology) criteria divide responses into four general categories: complete response, partial response, stable disease, and regression.

[10] = target: glycogen synthase kinase-3β (GSK-3β) (Homo sapiens, UniProt P49841); details: cited from earlier work
Sequence of glycogen synthase kinase-3β (GSK-3β) (P49841 whole entry, species assumed): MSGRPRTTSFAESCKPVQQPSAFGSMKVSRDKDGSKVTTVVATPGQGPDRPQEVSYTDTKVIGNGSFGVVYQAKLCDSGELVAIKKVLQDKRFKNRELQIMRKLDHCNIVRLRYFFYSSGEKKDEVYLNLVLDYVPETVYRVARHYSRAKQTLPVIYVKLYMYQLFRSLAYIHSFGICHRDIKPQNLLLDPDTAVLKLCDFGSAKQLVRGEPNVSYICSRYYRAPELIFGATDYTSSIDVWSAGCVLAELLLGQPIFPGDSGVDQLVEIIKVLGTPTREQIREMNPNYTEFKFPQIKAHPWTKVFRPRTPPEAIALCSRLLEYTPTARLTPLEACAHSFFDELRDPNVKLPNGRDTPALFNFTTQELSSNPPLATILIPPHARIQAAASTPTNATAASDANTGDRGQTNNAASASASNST

In the case of `O=NN(CCCl)C(=O)NCCCl` [Carmustine], the “Median O.S. (XRT + Chemo)” value ([1]; GBM, historical data) is listed as 40-50 weeks and the Nadir ([1]; human, in vivo) is listed as 21 to 35 days.
`O[C@H]([C@H](O)[C@@H]1CO1)[C@H]1CO1` [dianhydrogalactitol] showed a median survival time ([2]; 3 mg/kg i.p. 3 times/week x 3 weeks) of 54 days, a median survival time ([2]; 4 mg/kg i.p. 3 times/week x 3 weeks) of 72 days and a median survival time ([2]; 5 mg/kg i.p., 4 doses only) of 57 days. The “inhibition of tumor (cell) growth compared with TMZ” value [3] was “better than TMZ”, the “maximum tolerated dose (MTD), as 33 day cycle cumulative dose” value [4] was > 120 mg/m^2 and the “average Cmax” value ([5]; 10 mg/m^2) was < 200 ng/mL. It also gave a Cmax ([5]; 20 mg/m^2, average) of 180 ng/mL, an AUC ([5]; Cohort 1, 1.5 mg/m^2) of 18.9 ng·h/mL and a Cmax ([5]; Cohort 1, 1.5 mg/m^2) of 16.5 ng/mL. The Tmax ([5]; Cohort 1, 1.5 mg/m^2) was 15 min, the t-½ ([5]; Cohort 1, 1.5 mg/m^2) was 2.02 h and the AUC ([5]; Cohort 2, 3 mg/m^2) was 48.5 ng·h/mL. The Cmax ([5]; Cohort 2, 3 mg/m^2) was 46.4 ng/mL, the Tmax ([5]; Cohort 2, 3 mg/m^2) was 15 min and the t-½ ([5]; Cohort 2, 3 mg/m^2) was 0.83 h. The AUC ([5]; Cohort 3, 5 mg/m^2) was 108.0 ng·h/mL, the Cmax ([5]; Cohort 3, 5 mg/m^2) was 80.5 ng/mL and the Tmax ([5]; Cohort 3, 5 mg/m^2) was 15 min. The t-½ ([5]; Cohort 3, 5 mg/m^2) was 1.27 h, the AUC ([5]; Cohort 4, 10 mg/m^2) was 191.7 ng·h/mL and the Cmax ([5]; Cohort 4, 10 mg/m^2) was 172.0 ng/mL. For the same compound, the Tmax ([5]; Cohort 4, 10 mg/m^2) was 15 min, the t-½ ([5]; Cohort 4, 10 mg/m^2) was 1.19 h and the “time of peak concentration after initiation of the intravenous infusion” value ([5]; all dose levels 1.5-10 mg/m^2) was 0.25. For the same compound, the “time for plasma concentrations to return to near baseline after dosing” value ([5]; cohorts 1-4) was ≤ 8 h, the “dose dependence of systemic exposure” value [5] was “dose-dependent linear systemic exposure” and the “dose dependence of systemic exposure” value ([5]; listed as DAG) was “more than dose proportional increase in exposure”. For the same compound, the “dose dependence of systemic exposure” value ([5]; listed as Dianhydrogalactitol) was “dose-dependent increase in exposure”, the “dose dependence of systemic exposure” value ([5]; listed as VAL-083) was “dose-dependent linear systemic exposure” and the plasma half-life ([5]; patients, IV) was 60 to 120 min. The plasma terminal half-life ([5]; patients, IV) was 60 to 120 min, the Recovery ([1]; GBM, historical data) was “Within 7-8 days” and the “efficacy in combination with radiation versus radiation alone” value ([1]; human, in vivo, iv) was “superior to radiation alone”. The DLT ([1]; human, in vivo) was “Hematologic”, the “Median O.S. (XRT + Chemo)” value ([1]; human, in vivo) was 67 weeks and the Nadir ([1]; human, in vivo) was 18 to 21 days. For the same compound, the “Other Severe Toxicities Reported (>2%)” value ([1]; human, in vivo) was “None”, the “effect on normal human neural stem cells” value [6] was “minimal effect” and the “inhibition of growth of cancer stem cells” value [7] was 80-100%. The “Tumor Response, Overall” value [8] was 17%, the “Tumor Response, type (number of patients)” value [8] was “SD (1)” and the “tumor response in cohort 6” value ([9]; 30 mg/m^2, after 1 cycle, one of two patients) was “exhibited stable disease”. The “Tumor Response, Overall” value ([9]; GBM patients, n = 8) was 25%, the “Tumor Response, type (number of patients)” value ([9]; GBM patients, n = 8) was “PR (1); SD” and the “MRI scans, abnormal enhancement” value ([9]; Patient #26, T=0 vs T=64 days, after two cycles) was “Thick confluent regions of abnormal enhancement have diminished”. For the same compound, the “patients exhibiting a response (stable disease or partial response)” value ([9]; early cohorts, Example 1) was “Two patients exhibiting a response”.
In the case of `CN1C(=O)/C(=C2/C(=O)Nc3ccccc32)c2ccccc21` [meisoindigo], the “concentration for inhibition of GSK-3β” value [10] is given as 5 to 50 nM.
In the case of `Cn1nnc2c(C(N)=O)ncn2c1=O` [temozolomide], the “day of termination at the end of the study” value ([2]; TMZ 30 mg/kg) is listed as 102 days, the DLT ([1]; GBM, historical data) is listed as “Hematologic” and the Nadir ([1]; GBM, historical data) is listed as 21 to 28 days. The Recovery ([1]; GBM, historical data) was “Within 14 days”.
